In ChEMBL document CHEMBL3804811 (J Med Chem, 2016):
Activity calls are given as the source filed them. The rule behind the calls is not given here.

Assays:
[1] = Apparent permeability from apical to basolateral side in human Caco2 cells at 2.5 mg/ml after 2 hrs by reversed-phase HPLC method; format: ADME, cell-based; conditions: Caco-2
[2] = Intrinsic clearance in human liver microsomes at […] preincubated for 5 mins followed by NADPH addition measured after 5 to 30 mins by LC-MS/MS analysis; format: ADME; conditions: read-out: CLH
[3] = Intrinsic clearance in rat hepatocytes at […] after 10 to 90 mins by LC-MS/MS analysis; format: ADME, cell-based, Hepatocyte; conditions: read-out: CLH
[4] = Cmax in Harlan nu/nu mouse at 10 mg/kg, iv administered as single dose by LC-MS/MS analysis; format: ADME, organism-based; set-up: dose 10 mg/kg, route intravenous; conditions: in vivo
[5] = Clearance in Sprague-Dawley rat at 10 mg/kg, iv administered as single dose by LC-MS/MS analysis; format: ADME, organism-based; conditions: in vivo
[6] = Half life in Sprague-Dawley rat at 10 mg/kg, iv administered as single dose by LC-MS/MS analysis; format: ADME, organism-based; conditions: in vivo
[7] = Antiproliferative activity against human SUP-M2 cells expressing ALK protein incubated for 72 hrs by cell titer-glo assay; format: functional, cell-based; conditions: SUP-M2, 72 h
[8] = Antiproliferative activity against human MV411 cells incubated for 72 hrs by cell titer-glo assay; format: functional, cell-based; conditions: MV4-11, 72 h
[9] = molecular target: Vascular endothelial growth factor receptor 3 (Homo sapiens, UniProt P35916); assay: Inhibition of VEGFR3 (unknown origin) in presence of gamma33-ATP
Sequence of Vascular endothelial growth factor receptor 3 (P35916 whole entry): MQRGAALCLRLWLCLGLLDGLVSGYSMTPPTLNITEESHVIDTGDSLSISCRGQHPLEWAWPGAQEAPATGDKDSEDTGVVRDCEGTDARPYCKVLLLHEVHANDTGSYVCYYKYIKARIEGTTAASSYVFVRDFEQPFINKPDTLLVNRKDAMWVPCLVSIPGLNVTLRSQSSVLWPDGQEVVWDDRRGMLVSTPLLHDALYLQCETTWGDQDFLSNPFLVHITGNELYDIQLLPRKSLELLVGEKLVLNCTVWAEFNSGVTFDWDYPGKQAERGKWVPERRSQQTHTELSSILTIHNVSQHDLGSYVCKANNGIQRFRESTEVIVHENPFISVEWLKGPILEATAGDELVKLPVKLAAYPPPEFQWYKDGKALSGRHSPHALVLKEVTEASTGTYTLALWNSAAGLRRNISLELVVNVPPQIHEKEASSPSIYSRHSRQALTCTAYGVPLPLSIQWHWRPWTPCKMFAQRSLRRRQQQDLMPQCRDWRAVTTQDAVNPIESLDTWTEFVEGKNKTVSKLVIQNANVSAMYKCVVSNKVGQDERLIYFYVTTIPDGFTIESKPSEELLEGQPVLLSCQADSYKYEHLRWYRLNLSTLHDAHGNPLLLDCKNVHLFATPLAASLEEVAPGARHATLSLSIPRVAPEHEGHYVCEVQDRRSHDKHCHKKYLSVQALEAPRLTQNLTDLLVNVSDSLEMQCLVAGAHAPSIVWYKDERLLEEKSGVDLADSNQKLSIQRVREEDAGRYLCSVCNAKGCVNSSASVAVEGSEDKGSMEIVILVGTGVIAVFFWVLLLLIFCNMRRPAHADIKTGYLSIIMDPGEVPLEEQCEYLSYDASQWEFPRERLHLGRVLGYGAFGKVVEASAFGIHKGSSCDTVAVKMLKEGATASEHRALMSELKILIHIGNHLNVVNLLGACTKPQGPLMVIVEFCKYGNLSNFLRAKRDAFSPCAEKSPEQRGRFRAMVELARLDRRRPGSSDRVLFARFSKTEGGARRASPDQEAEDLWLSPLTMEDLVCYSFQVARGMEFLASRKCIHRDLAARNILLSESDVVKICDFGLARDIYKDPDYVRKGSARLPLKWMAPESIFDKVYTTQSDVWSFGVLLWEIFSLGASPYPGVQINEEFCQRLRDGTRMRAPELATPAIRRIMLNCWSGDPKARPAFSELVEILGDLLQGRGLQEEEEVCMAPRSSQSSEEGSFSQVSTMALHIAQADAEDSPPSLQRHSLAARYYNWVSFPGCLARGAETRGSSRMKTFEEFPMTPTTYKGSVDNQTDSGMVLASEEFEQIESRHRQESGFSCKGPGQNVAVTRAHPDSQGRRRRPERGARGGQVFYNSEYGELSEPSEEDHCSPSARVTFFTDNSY

[10] = molecular target: T1, Eukaryotic elongation factor 2 kinase (Homo sapiens, UniProt O00418); assay: Inhibition of EEF2K (unknown origin) in presence of gamma33-ATP
T1 sequence (O00418 whole entry): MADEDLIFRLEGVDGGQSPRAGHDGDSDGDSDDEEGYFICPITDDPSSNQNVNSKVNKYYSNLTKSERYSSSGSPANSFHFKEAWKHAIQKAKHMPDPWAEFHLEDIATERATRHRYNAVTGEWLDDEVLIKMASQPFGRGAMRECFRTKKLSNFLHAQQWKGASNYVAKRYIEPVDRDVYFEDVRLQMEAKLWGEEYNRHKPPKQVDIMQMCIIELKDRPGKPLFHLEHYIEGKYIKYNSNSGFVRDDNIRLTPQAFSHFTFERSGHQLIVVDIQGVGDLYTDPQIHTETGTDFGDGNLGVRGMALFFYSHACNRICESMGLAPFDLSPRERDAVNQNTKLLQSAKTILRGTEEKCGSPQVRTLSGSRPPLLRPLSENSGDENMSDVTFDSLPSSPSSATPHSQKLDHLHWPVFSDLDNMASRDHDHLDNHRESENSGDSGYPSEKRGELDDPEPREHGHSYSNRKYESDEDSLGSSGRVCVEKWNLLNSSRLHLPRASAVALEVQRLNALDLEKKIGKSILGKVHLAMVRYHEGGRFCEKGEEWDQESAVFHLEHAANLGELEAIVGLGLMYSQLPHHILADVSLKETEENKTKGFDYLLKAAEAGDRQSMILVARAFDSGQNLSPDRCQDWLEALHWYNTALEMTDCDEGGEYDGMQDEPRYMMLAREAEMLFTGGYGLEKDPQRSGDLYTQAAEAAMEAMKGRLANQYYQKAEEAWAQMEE

[11] = molecular target: T2, Inhibitor of nuclear factor kappa-B kinase subunit beta (Homo sapiens, UniProt O14920); assay: Inhibition of IKK2 (unknown origin) in presence of gamma33-ATP
T2 sequence (O14920 whole entry): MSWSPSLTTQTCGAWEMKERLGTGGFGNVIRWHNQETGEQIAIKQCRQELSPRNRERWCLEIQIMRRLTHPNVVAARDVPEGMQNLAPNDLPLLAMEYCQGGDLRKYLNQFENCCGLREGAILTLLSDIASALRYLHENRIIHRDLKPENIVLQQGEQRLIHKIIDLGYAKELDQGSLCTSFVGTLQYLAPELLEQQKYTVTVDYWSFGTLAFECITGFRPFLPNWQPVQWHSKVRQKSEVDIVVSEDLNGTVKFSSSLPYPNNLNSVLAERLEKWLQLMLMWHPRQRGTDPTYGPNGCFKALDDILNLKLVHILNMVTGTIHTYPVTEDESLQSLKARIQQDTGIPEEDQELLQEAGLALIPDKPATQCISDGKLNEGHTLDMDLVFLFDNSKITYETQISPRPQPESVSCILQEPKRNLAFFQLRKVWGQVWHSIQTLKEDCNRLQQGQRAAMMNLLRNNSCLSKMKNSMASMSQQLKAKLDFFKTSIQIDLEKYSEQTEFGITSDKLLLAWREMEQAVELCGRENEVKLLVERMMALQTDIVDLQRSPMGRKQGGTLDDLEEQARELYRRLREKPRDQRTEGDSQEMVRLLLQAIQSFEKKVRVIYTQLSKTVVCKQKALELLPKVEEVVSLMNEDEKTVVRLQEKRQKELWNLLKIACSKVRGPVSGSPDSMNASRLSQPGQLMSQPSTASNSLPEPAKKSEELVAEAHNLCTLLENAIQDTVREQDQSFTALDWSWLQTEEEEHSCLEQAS

[12] = molecular target: Serine/threonine-protein kinase Nek6 (Homo sapiens, UniProt Q9HC98); assay: Inhibition of NEK6 (unknown origin) in presence of gamma33-ATP
Sequence of Serine/threonine-protein kinase Nek6 (Q9HC98 whole entry): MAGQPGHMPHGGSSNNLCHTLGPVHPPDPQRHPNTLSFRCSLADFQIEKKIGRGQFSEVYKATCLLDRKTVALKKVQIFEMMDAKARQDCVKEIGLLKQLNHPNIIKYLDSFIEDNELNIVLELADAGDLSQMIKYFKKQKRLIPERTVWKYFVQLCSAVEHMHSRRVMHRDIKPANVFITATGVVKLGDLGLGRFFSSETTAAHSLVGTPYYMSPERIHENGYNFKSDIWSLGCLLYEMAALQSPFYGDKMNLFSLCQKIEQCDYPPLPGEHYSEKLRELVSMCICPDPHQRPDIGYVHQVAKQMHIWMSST

[13] = molecular target: T3, Tyrosine-protein kinase ZAP-70 (Homo sapiens, UniProt P43403); assay: Inhibition of ZAP70 (unknown origin) in presence of gamma33-ATP
T3 sequence (P43403 whole entry): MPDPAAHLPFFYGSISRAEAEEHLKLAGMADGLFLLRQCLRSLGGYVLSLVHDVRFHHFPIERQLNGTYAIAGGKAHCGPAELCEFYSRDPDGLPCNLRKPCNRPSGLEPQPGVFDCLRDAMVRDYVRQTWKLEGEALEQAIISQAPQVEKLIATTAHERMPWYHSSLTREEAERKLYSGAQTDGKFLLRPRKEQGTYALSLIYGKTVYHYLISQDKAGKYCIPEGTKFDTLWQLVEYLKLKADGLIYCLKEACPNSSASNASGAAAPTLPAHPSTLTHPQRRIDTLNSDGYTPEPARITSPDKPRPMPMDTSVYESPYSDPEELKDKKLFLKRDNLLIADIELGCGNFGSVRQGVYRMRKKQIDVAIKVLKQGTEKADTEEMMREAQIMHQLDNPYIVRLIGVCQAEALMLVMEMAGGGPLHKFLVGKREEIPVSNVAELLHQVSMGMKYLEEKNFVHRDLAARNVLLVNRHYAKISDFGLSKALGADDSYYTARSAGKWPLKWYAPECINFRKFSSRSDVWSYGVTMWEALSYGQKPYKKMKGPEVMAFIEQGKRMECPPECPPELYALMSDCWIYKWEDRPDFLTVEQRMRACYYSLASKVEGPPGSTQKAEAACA

[14] = Drug uptake in Harlan nu/nu mouse brain at 240 mg/kg, po administered per day for 2 weeks measured 6 hrs post last dose by LC-MS/MS analysis; format: ADME, organism-based; conditions: read-out: Drug uptake
KARPAS-299 = conditions: Homo sapiens
Description: Antitumor activity against human KARPAS299 cells xenografted in SCID mouse assessed as tumor growth inhibition at 30 to 60 mg/kg, po bid administered for 10 days

Papp A→B at 2 h, 2.5 mg/ml [1]: 2.4 ×10⁻⁶ cm/s | CLint scaled [2]: 33 mL/min/kg | CLint scaled [3]: 87 mL/min/kg | Cmax [4]: 4.9 µM | clearance [5]: 20.8 mL/min/kg | half-life [6]: 3.5 h | IC50 [9]: > 1000 nM | IC50 [10]: > 10000 nM | IC50 [11]: > 10000 nM | IC50 [12]: > 10000 nM | IC50 [13]: > 10000 nM | concentration at 6 h [14]: 1.94 µM
SMILES: CN1CCN(c2ccc(C(=O)Nc3n[nH]c4ccc(Cc5cc(F)cc(F)c5)cc34)c(NC3CCOCC3)c2)CC1 [ENTRECTINIB]
IC50 [7]: 41 nM | IC50 [8]: 81 nM | TGI (KARPAS-299): Active
